From PubChem BioAssay AID248 (DTP/NCI, 2004)
“And” between values parts separate entries of the source, which are not always exact repeats. Equal entries are not always repeated. Inconclusive results and toxic doses are left out. No stated cut-off is given here; in the data, active means T/C of 150% or more; inactive means T/C below 125%.

Tested on: L1210 leukemia ip in BDF1 mice, survival T/C
Assay: NCI In Vivo Anticancer Drug Screen. Data for tumor model L1210 Leukemia (intraperitoneal) in B6D2F1 (BDF1) mice
Details: endpoint: mean survival time, higher = longer survival
Summary of the method: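 Read-out is survival time, reported as the treated-group measurement over the vehicle-control measurement.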

[1] = dose: 100.0 mg/kg/injection, schedule: Q01DX009 (ip), vehicle: Klucel (hydroxypropylcellulose) (HPC)
[2] = dose: 200.0 mg/kg/injection, schedule: Q01DX009 (ip), vehicle: Klucel (hydroxypropylcellulose) (HPC)
[3] = dose: 400.0 mg/kg/injection, schedule: Q01DX009 (ip), vehicle: Klucel (hydroxypropylcellulose) (HPC)
[4] = dose: 50.0 mg/kg/injection, schedule: Q01DX009 (ip), vehicle: Klucel (hydroxypropylcellulose) (HPC)
[5] = dose: 100.0 mg/kg/injection, schedule: Q01DX001 (ip), vehicle: saline
[6] = dose: 200.0 mg/kg/injection, schedule: Q01DX001 (ip), vehicle: saline
[7] = dose: 400.0 mg/kg/injection, schedule: Q01DX001 (ip), vehicle: saline
[8] = dose: 100.0 mg/kg/injection, schedule: Q01DX009 (ip), vehicle: saline with Tween-80
[9] = dose: 100.0 mg/kg/injection, schedule: Q04DX002 (ip), vehicle: saline with Tween-80
[10] = dose: 200.0 mg/kg/injection, schedule: Q01DX009 (ip), vehicle: saline with Tween-80
[11] = dose: 200.0 mg/kg/injection, schedule: Q04DX002 (ip), vehicle: saline with Tween-80
[12] = dose: 400.0 mg/kg/injection, schedule: Q04DX002 (ip), vehicle: saline with Tween-80
[13] = dose: 50.0 mg/kg/injection, schedule: Q01DX001 (ip), vehicle: carboxymethylcellulose (CMC)
[14] = dose: 100.0 mg/kg/injection, schedule: Q01DX001 (ip), vehicle: carboxymethylcellulose (CMC)
[15] = dose: 200.0 mg/kg/injection, schedule: Q01DX001 (ip), vehicle: carboxymethylcellulose (CMC)
[16] = dose: 400.0 mg/kg/injection, schedule: Q01DX001 (ip), vehicle: carboxymethylcellulose (CMC)
[17] = dose: 100.0 mg/kg/injection, schedule: Q01DX009 (ip), vehicle: saline
[18] = dose: 100.0 mg/kg/injection, schedule: Q04DX003 (ip), vehicle: saline
[19] = dose: 200.0 mg/kg/injection, schedule: Q01DX009 (ip), vehicle: saline
[20] = dose: 200.0 mg/kg/injection, schedule: Q04DX003 (ip), vehicle: saline
[21] = dose: 400.0 mg/kg/injection, schedule: Q01DX009 (ip), vehicle: saline
[22] = dose: 400.0 mg/kg/injection, schedule: Q04DX003 (ip), vehicle: saline
[23] = dose: 100.0 mg/kg/injection, schedule: Q04DX003 (ip), vehicle: Klucel (hydroxypropylcellulose) (HPC)
[24] = dose: 200.0 mg/kg/injection, schedule: Q04DX003 (ip), vehicle: Klucel (hydroxypropylcellulose) (HPC)

Measured: T/C

NC(=O)NC(=O)COc1ccc(Cl)cc1Cl
inactive: dose: 100.0 mg/kg/injection, schedule: Q04DX002 (ip), vehicle: saline + alcohol 96 % of control | dose: 200.0 mg/kg/injection, schedule: Q04DX002 (ip), vehicle: saline + alcohol 103 % of control

CCCCCCCCCCCCCCCCCC(=O)OCCCCCCC
inactive: [1] 102 % of control | [2] 102 % of control | [3] 112 % of control

CCOP(=O)(/C(C#N)=C/c1ccccc1)c1ccccc1 (centres undefined)
inactive: [4] 95 % of control | dose: 75.0 mg/kg/injection, schedule: Q01DX009 (ip), vehicle: Klucel (hydroxypropylcellulose) (HPC) 96 % of control | dose: 75.0 mg/kg/injection, schedule: Q04DX003 (ip), vehicle: Klucel (hydroxypropylcellulose) (HPC) 101 % of control | dose: 150.0 mg/kg/injection, schedule: Q01DX009 (ip), vehicle: Klucel (hydroxypropylcellulose) (HPC) 93 % of control | dose: 150.0 mg/kg/injection, schedule: Q04DX003 (ip), vehicle: Klucel (hydroxypropylcellulose) (HPC) 98 % of control | dose: 300.0 mg/kg/injection, schedule: Q04DX003 (ip), vehicle: Klucel (hydroxypropylcellulose) (HPC) 91 % of control

O=C(/C=C/c1ccc([N+](=O)[O-])cc1)Nc1ccc(S(=O)(=O)F)cc1
inactive: [5] 96 % of control | [1] 94 % of control | [6] 101 % of control | [2] 89 % of control | [7] 100 % of control | [3] 88 % of control

COc1ccc(C)cc1NC(=S)NC(=O)c1cccc([N+](=O)[O-])c1
inactive: dose: 100.0 mg/kg/injection, schedule: Q01DX001 (ip), vehicle: saline with Tween-80 93 % of control | [8] 100 % of control and 89 % of control | [9] 87 % of control | dose: 100.0 mg/kg/injection, schedule: Q04DX003 (ip), vehicle: saline with Tween-80 101 % of control | dose: 200.0 mg/kg/injection, schedule: Q01DX001 (ip), vehicle: saline with Tween-80 89 % of control | [10] 96 % of control and 97 % of control | [11] 97 % of control | dose: 200.0 mg/kg/injection, schedule: Q04DX003 (ip), vehicle: saline with Tween-80 93 % of control | dose: 400.0 mg/kg/injection, schedule: Q01DX009 (ip), vehicle: saline with Tween-80 92 % of control and 101 % of control | [12] 90 % of control | dose: 400.0 mg/kg/injection, schedule: Q04DX003 (ip), vehicle: saline with Tween-80 88 % of control

O=[N+]([O-])c1ccc(Nc2ccccc2)nc1
inactive: [13] 106 % of control | [14] 106 % of control | [15] 101 % of control | [16] 106 % of control

Cc1ccc(-n2nnc3ccccc3c2=O)cc1C
inactive: [17] 101 % of control | [18] 92 % of control | [19] 98 % of control | [20] 108 % of control | [21] 104 % of control | [22] 93 % of control

CCOC(=O)c1ccc(NC(=O)Nc2ccc(SC)cc2)cc1
inactive: [1] 98 % of control | [2] 95 % of control | [3] 104 % of control

COc1cc(C(=O)OC(C)CN2CCN(C(=O)c3cc(OC)c(OC)c(OC)c3)CC2)cc(OC)c1OC (centres undefined)
inactive: dose: 25.0 mg/kg/injection, schedule: Q01DX009 (ip), vehicle: saline 108 % of control | dose: 25.0 mg/kg/injection, schedule: Q04DX003 (ip), vehicle: saline 98 % of control | dose: 50.0 mg/kg/injection, schedule: Q01DX009 (ip), vehicle: saline 101 % of control | dose: 50.0 mg/kg/injection, schedule: Q04DX003 (ip), vehicle: saline 95 % of control | [17] 104 % of control | [18] 102 % of control | [19] 98 % of control | [20] 102 % of control | [22] 109 % of control

CCN(CC)Cc1nnnn1-c1ccccc1
inactive: [5] 103 % of control | [6] 97 % of control | [7] 106 % of control

CCOC(=O)C[n+]1ccc(C(=O)c2cc3ccccc3[nH]2)cc1
inactive: [8] 93 % of control | [10] 92 % of control

Cc1ccccc1NC(=O)Oc1ccc(Cl)cc1Cl
inactive: dose: 100.0 mg/kg/injection, schedule: Q04DX002 (ip), vehicle: gum acacia 107 % of control | dose: 200.0 mg/kg/injection, schedule: Q04DX002 (ip), vehicle: gum acacia 100 % of control | dose: 400.0 mg/kg/injection, schedule: Q04DX002 (ip), vehicle: gum acacia 104 % of control

O=C1CCCc2ccc([N+](=O)[O-])cc21
inactive: [18] 96 % of control | [20] 87 % of control

Cc1ccc([N+](=O)[O-])cc1S(=O)(=O)O
inactive: [17] 95 % of control | [18] 102 % of control | [19] 102 % of control | [20] 102 % of control | [21] 98 % of control | [22] 96 % of control

COc1cc(N(CCCl)CCCl)ccc1C=Nc1ccccc1-n1ccnc1
inactive: dose: 68.8 mg/kg/injection, schedule: Q04DX002 (ip), vehicle: Klucel (hydroxypropylcellulose) (HPC) 102 % of control | dose: 137.5 mg/kg/injection, schedule: Q04DX002 (ip), vehicle: Klucel (hydroxypropylcellulose) (HPC) 91 % of control | dose: 275.0 mg/kg/injection, schedule: Q04DX002 (ip), vehicle: Klucel (hydroxypropylcellulose) (HPC) 102 % of control

CS(=O)(=O)Oc1ccc(S(=O)(=O)F)cc1Cl
inactive: dose: 100.0 mg/kg/injection, schedule: Q04DX002 (ip), vehicle: Klucel (hydroxypropylcellulose) (HPC) 102 % of control | dose: 200.0 mg/kg/injection, schedule: Q04DX002 (ip), vehicle: Klucel (hydroxypropylcellulose) (HPC) 94 % of control

COC(=O)C(c1ccccc1)c1ccccc1
inactive: dose: 100.0 mg/kg/injection, schedule: Q01DX001 (ip), vehicle: Klucel (hydroxypropylcellulose) (HPC) 97 % of control | dose: 200.0 mg/kg/injection, schedule: Q01DX001 (ip), vehicle: Klucel (hydroxypropylcellulose) (HPC) 97 % of control | dose: 400.0 mg/kg/injection, schedule: Q01DX001 (ip), vehicle: Klucel (hydroxypropylcellulose) (HPC) 104 % of control

CC(=N)/C(C(=O)NC1CCCCC1)=C(/C)O
inactive: [17] 101 % of control | [18] 104 % of control | [19] 103 % of control | [20] 109 % of control | [21] 93 % of control | [22] 96 % of control

N#CCN1Cc2ccccc2CCc2ccccc2C1
inactive: [4] 103 % of control | [1] 108 % of control | [23] 100 % of control | [2] 107 % of control | [24] 96 % of control

CC1(C)NCC(=O)N1C(Cc1ccccc1)C(=O)O (centres undefined)
inactive: [5] 100 % of control | [6] 97 % of control | [7] 100 % of control

COC(=O)C1OC1C(=O)OC (centres undefined)
inactive: [1] 91 % of control | [17] 101 % of control | [2] 96 % of control | [19] 100 % of control | [3] 102 % of control | [21] 92 % of control

O=C(O)COc1c(Cl)cc(Cl)c2cccnc12
inactive: [14] 93 % of control | [15] 101 % of control

CCCC[P+](CCCC)(CCCC)CC(=O)OCC
inactive: dose: 15.0 mg/kg/injection, schedule: Q01DX001 (ip), vehicle: carboxymethylcellulose (CMC) 86 % of control | dose: 60.0 mg/kg/injection, schedule: Q01DX001 (ip), vehicle: carboxymethylcellulose (CMC) 87 % of control

CCOC(=O)C(Br)C(Br)c1ccccc1 (centres undefined)
inactive: [18] 103 % of control | [20] 108 % of control | [22] 98 % of control

S=P(c1ccccc1)(c1ccccc1)C(P(c1ccccc1)c1ccccc1)P(c1ccccc1)c1ccccc1
inactive: [9] 97 % of control | [11] 100 % of control | [12] 97 % of control

CC(C)N(CCC#N)C(=S)Nc1cccc2ccccc12
inactive: [1] 93 % of control | [2] 87 % of control | [3] 102 % of control

OCCCNc1nc2ccccc2c2ccccc12
inactive: [17] 102 % of control | [23] 94 % of control | [19] 100 % of control | [24] 102 % of control | dose: 400.0 mg/kg/injection, schedule: Q04DX003 (ip), vehicle: Klucel (hydroxypropylcellulose) (HPC) 100 % of control

C=CCOC(=O)Nc1ccc(S(=O)(=O)N(C)C)cc1
inactive: [14] 97 % of control | [15] 93 % of control | [16] 97 % of control

N=C1SSC(=S)C1C(N)=O (centres undefined)
inactive: [13] 94 % of control | [14] 96 % of control | [15] 100 % of control | [16] 100 % of control
